This assay has as its target T1, phospholipase A2.
T1 construct: gene PLA2G1B; not described in the main text; reagent of the PubChem AID 588400 phospholipase counterscreen (possibly the PLA2 reporter enzyme of an ATG4B assay)
The experiment in a line: phospholipase inhibition assay (as PubChem AID […]). Format: biochemical, Homo sapiens.

Read-outs that look alike come from different tables or passages of the source.

As to `Cc1c(Cl)cccc1Nc1ccccc1C(=O)O` [tolfenamic acid], the IC50 (read-out: IC50) is 20 µM.

Regarding `O=C(O)c1ccccc1Nc1cc(Cl)ccc1C(=O)O` [lobenzarit], for the setting “read-out: no significant inhibition at concentrations up to 300 μM”, the IC50 is over 300 µM.
